Data reported in patent publication US6518012B1, “Method for regulating the expression of MHC antigens and CD40 by inhibitors of histone deacetylation” (Health Research, Inc., priority 1999, dated 2003).

How the values were obtained:
[1] = test system: IAα mRNA; assay: MHC class II (IAα) mRNA by RT-PCR and real-time PCR in mouse tumor models; type: cell-based; conditions: for fold increase in Ia (Iα): real-time PCR; for class II mRNA activation: titration with different concentrations of TSA for 12 hours, RT-PCR and real-time PCR
Protocol: (§1) To determine the effect of DAIs on HLA-DRα mRNA, cytoplasmic RNA was isolated from untreated and treated human trophoblast cell line JAR using standard techniques (RNeasy System from Qiagen). Standard PCR was performed using primers for DR and CIITA (Murphy et al., 1998, Reprod Dev., Chin et al., 1994, Immunity 1:687-697). Other primers used included human and mouse GAPDH (Clontech) and forward primer 5′-[…]-3′ (SEQ ID NO:25) and reverse primer 5′-[…]-3′ (SEQ ID NO:26) for mouse CIITA. PCR products were amplified with GOLD Taq for 10 min at 95° C., then 95° C. for 30 sec, 60° C. for 60 sec (25-45 cycles), then an extension at 60° C. for 10 min.
In order to obtain more quantitative information on fold changes in DR and CIITA after treatment with the deacetylase inhibitors, a real time fluorescence technique capable of quantitating low copy numbers of transcripts was carried out as follows. Oligonucleotide primers and TaqMan 5′-6-FAM and 3′-TAMRA-labeled probes were synthesized in the RPCI Biopolymer Facility. Primer and probe sequences are listed under Sequence Listing and also in FIG. 9. Sequences were designed using standard software (PrimerExpress software, PE Biosystems) except for human GAPDH.
Realtime PCR reactions contained TaqMan Universal PCR Master Mix (PE Biosystems), primers at 300 nM, and probes at optimal concentrations (150-225 nM depending on gene). Reactions were carried out on an ABI PRISM 7700 Sequence Detection System (PE Biosystems). Cycling conditions were 50° C. for 2 min, 95° C. for 10 min, then 60 cycles of 95° C. for 15 sec, 60° C. for 1 min. PCR samples were run in triplicate. The detection system and quantitative PCR was carried out as described by Williamson et al. (1995, Genet Res. 65:83-93). The threshold cycle number CT corresponded to the cycle number, at which the fluorescent emission reaches 10 standard deviations above the mean fluorescent emission, measured during the early ‘baseline’ cycles of the PCR. The CT values for triplicates were averaged and normalized to GAPDH levels. […] In such cases, in order to calculate a minimum fold change for other samples in the same group, the CT value was arbitrarily set at 40. […] Assuming reverse transcription efficiencies were approximately the same for each sample, relative amounts of mRNA using the comparative CT method. Fold changes in mRNA levels were calculated as 2^x where x=the difference between normalized CT values of the control and experimental samples.
To determine if the effect of DAIs on MHC class II was manifested in other tumors and in different species, the effect of TSA was tested on four commonly used mouse tumor models: the SaI fibrosarcoma, the Colon 26 adenocarcinoma, the J558 plasmacytoma and the P815 mastocytoma. TSA induced class II in all four mouse tumors examined, while the effects of IFNγ were variable (FIG. 4). Data presented for each cell line represents optimal incubation time and concentration of TSA and is compared with 100 U/ml of IFNγ at the same time point. Numbers over bars represents fold changes. […] Colon 26 and J558 that differed strikingly in their reactivity to IFNγ were selected for further evaluation. RT-PCR and real time PCR was used to examine induction of CIITA and IAα by TSA and IFNγ. A20, a constitutively positive B cell line was used as a positive control. The results are shown in FIGS. 5A-D. The numbers over bars represent fold changes. […] Since the classical IFNγ inducible genes IRF-1 and GBP as well as MHC class I mRNA were not induced by IFNγ in J558 (data not shown), this cell line may have a signaling defect in the IFNγ pathway. Unexpectedly however, and unlike either the MC or Colon 26 cells, TSA induced both CIITA (102-fold) and Iα (537-fold) in J558 as shown in FIGS. 5B and 5D.

[2] = test system: class II transactivator (CIITA) mRNA; assay: CIITA mRNA by standard PCR and real-time PCR in human cell lines JAR and SK-N-MC; type: cell-based; conditions: for CIITA mRNA fold change: MC cells, real time PCR up to 60 cycles, 100 nM TSA 24 hr, NaBu 1 mM 48 hr
Protocol: as §1
Oligonucleotide primers and TaqMan 5′-6-FAM and 3′-TAMRA-labeled probes were synthesized in the RPCI Biopolymer Facility. Primer and probe sequences are listed under Sequence Listing and also in FIG. 9. Sequences were designed using standard software (PrimerExpress software, PE Biosystems) except for human GAPDH.
Realtime PCR reactions contained TaqMan Universal PCR Master Mix (PE Biosystems), primers at 300 nM, and probes at optimal concentrations (150-225 nM depending on gene). Reactions were carried out on an ABI PRISM 7700 Sequence Detection System (PE Biosystems). Cycling conditions were 50° C. for 2 min, 95° C. for 10 min, then 60 cycles of 95° C. for 15 sec, 60° C. for 1 min. PCR samples were run in triplicate. The detection system and quantitative PCR was carried out as described by Williamson et al. (1995, Genet Res. 65:83-93). The threshold cycle number CT corresponded to the cycle number, at which the fluorescent emission reaches 10 standard deviations above the mean fluorescent emission, measured during the early ‘baseline’ cycles of the PCR. The CT values for triplicates were averaged and normalized to GAPDH levels. […] Assuming reverse transcription efficiencies were approximately the same for each sample, relative amounts of mRNA using the comparative CT method. Fold changes in mRNA levels were calculated as 2^x where x=the difference between normalized CT values of the control and experimental samples.
[…] RNA was isolated and real time quantitative RT-PCR was carried out. The fold increase in mRNA over the control was calculated.

[3] = SK-N-MC, routine RT-PCR at 35 cycles, 100 nM TSA 24 hours, 1 mM NaBu 48 hours, IFNγ

Row | Molecule | fold increase in Ia (Iα) ([1]; Colon 26) | Iα (class II) fold induction ([1]; J558, RT-PCR and real-time PCR (FIGS. 5B and 5D)) | class II mRNA activation ([1]; J558) | induction of class II mRNA ([1]; all four mouse tumors (SaI, Colon 26, J558, P815), optimal incubation time and concentration of TSA) | CIITA transcription ([2]; JAR, standard PCR at 35 cycles, 100 nM or 250 nM TSA or 1 mM sodium butyrate) | CIITA mRNA fold change ([2]; IFNγ) | CIITA transcription [2, 3] | expression of class II ([1]; Colon 26, standard RT-PCR at 35 cycles) | induction of class II mRNA ([1]; J558, 100 U/ml IFNγ (FIG. 4)) | class II mRNA ([1]; P815, 100 U/ml IFNγ (FIG. 4)) | fold-increases in class II mRNA compared with TSA ([1]; SaI and Colon 26, 100 U/ml IFNγ)
1 | CC(/C=C/C(=O)NO)=C\[C@@H](C)C(=O)c1ccc(N(C)C)cc1 [TSA, Trichostatin A] | 74 fold | 537 fold | induced | induced | undetectable | no increase | undetectable |  |  |  | 
2 | IFNγ: gamma-interferon, cytokine used as comparator at 100 U/ml | 58 fold |  | failed to activate |  |  | 4 fold | not detected | induced | failed to induce | only weakly enhanced | nearly equivalent fold-increases
